Measurements reported in the NIST ThermoML archive (doi:10.1021/je800571y).

Test: xn = mol fraction of the nth substance listed
Conditions: 101 kPa, Liquid

CCC(C)=O [butanone] + CCC(C)O
Conditions | mass density, 293.15 K [kg/m3] | mass density, 298.15 K [kg/m3] | mass density, 303.15 K [kg/m3] | mass density, 308.15 K [kg/m3] | mass density, 313.15 K [kg/m3] | viscosity, 293.15 K [mPa·s] | viscosity, 298.15 K [mPa·s] | viscosity, 303.15 K [mPa·s] | viscosity, 308.15 K [mPa·s] | viscosity, 313.15 K [mPa·s]
x1 = 0.0684 | 806.36 | 802.16 | 798.67 | 793.88 | 789.68 | 2.91 | 2.429 | 2.037 | 1.692 | 1.499
x1 = 0.1365 | 806.25 | 801.98 | 798.39 | 793.58 | 789.29 | 2.34 | 2.007 | 1.649 | 1.339 | 1.228
x1 = 0.2044 | 806.14 | 801.79 | 798.1 | 793.28 | 788.9 | 1.87 | 1.613 | 1.352 | 1.054 | 1.003
x1 = 0.2721 | 806.03 | 801.61 | 797.82 | 792.98 | 788.51 | 1.491 | 1.299 | 1.074 | 0.8161 | 0.8187
x1 = 0.3395 | 805.92 | 801.43 | 797.54 | 792.68 | 788.13 | 1.183 | 1.051 | 0.8484 | 0.6282 | 0.6806
x1 = 0.4066 | 805.81 | 801.25 | 797.26 | 792.39 | 787.74 | 0.9558 | 0.8537 | 0.6826 | 0.5076 | 0.5709
x1 = 0.4735 | 805.71 | 801.07 | 796.98 | 792.09 | 787.36 | 0.7693 | 0.687 | 0.5613 | 0.4126 | 0.4786
x1 = 0.5402 | 805.61 | 800.9 | 796.71 | 791.8 | 786.97 | 0.6236 | 0.56 | 0.4526 | 0.3601 | 0.4206
x1 = 0.6066 | 805.5 | 800.72 | 796.43 | 791.51 | 786.59 | 0.5287 | 0.48 | 0.3944 | 0.326 | 0.3681
x1 = 0.6727 | 805.4 | 800.55 | 796.16 | 791.22 | 786.21 | 0.4645 | 0.4282 | 0.3468 | 0.3051 | 0.3429
x1 = 0.7387 | 805.3 | 800.38 | 795.89 | 790.93 | 785.83 | 0.4412 | 0.3922 | 0.3077 | 0.309 | 0.3191
x1 = 0.8044 | 805.21 | 800.1 | 795.62 | 790.64 | 785.45 | 0.4486 | 0.362 | 0.3031 | 0.3112 | 0.2915
x1 = 0.8698 | 805.11 | 800.04 | 795.35 | 790.35 | 785.07 | 0.4468 | 0.3482 | 0.3071 | 0.3186 | 0.2805
x1 = 0.935 | 805.01 | 799.87 | 795.08 | 790.06 | 784.7 | 0.42 | 0.3 | 0.2786 | 0.2966 | 0.2718
x1 = 1 | 804.92 | 799.7 | 794.81 | 789.78 | 784.32 | 0.3956 | 0.2828 | 0.2666 | 0.2601 | 0.2545
